Key:
M. tuberculosis H37Rv = experiment: Acute TB mouse model of infection, bacterial load in lungs; format: in vivo, Mycobacterium tuberculosis; settings: for Log10CFU: 4 weeks of treatment
[1] = tested on: production of LTB4 in human PBMC (peripheral blood mononuclear cells); experiment: Production of LTB4 in PBMC (LTB4 secretion assay); format: cell-based; settings: 12 point dose response in duplicate
Description: Frozen human PBMC (peripheral blood mononuclear cells, AllCells, Cat#[…]) was diluted 50 times with fresh culture media (RPMI 1640 supplemented with 10% FBS, 2 mM L-alanyl-L-glutamine). Cells were harvested by centrifugation and resuspended in fresh culture media to a concentration of 5×10^6 cells per milliliter. 140 ul of cell suspension was then liquated to each well (96-well plate). After incubation at 37° C. for 1 hr under 5% CO2, 10 ul of serially diluted compounds (in 100% DMSO) and 10 ul of arachidonic acid to a final concentration of 30 uM were added and further incubated for 1 hr at 37° C. for 1 hr under 5% CO2. Then, inducers, such as A23187 (Ionophor), sodium arsenite, sodium chloride and/or Anti-DNP IgE, were added in a volume of 40 ul and cells were incubated at 37° C. for […]. Culture supernatant was harvested by centrifugation and LTB4 levels were quantified using LTB4 EIA kit (Cayman, Cat#520111). Six of the 378 compounds tested against the 5-LO enzyme in vitro were also selected to be tested for their activity in a human cellular assay. Compounds were tested in a 12 point dose response in duplicate.

Human 5-lipoxygenase = biological target: T1, Human 5-lipoxygenase (Homo sapiens, UniProt P09917); experiment: Activity of compounds against 5-LO enzyme (LTB4 measurement and/or fluorescence method); format: biochemical; settings: for inhibition at 10 µM: 5-LO, single concentration of 10 uM in duplicate; for IC50: 6 or 11 point dose response in duplicate
T1 construct: purchased Cayman 60402; host or cells: insect cells
T1 sequence (P09917 1-674): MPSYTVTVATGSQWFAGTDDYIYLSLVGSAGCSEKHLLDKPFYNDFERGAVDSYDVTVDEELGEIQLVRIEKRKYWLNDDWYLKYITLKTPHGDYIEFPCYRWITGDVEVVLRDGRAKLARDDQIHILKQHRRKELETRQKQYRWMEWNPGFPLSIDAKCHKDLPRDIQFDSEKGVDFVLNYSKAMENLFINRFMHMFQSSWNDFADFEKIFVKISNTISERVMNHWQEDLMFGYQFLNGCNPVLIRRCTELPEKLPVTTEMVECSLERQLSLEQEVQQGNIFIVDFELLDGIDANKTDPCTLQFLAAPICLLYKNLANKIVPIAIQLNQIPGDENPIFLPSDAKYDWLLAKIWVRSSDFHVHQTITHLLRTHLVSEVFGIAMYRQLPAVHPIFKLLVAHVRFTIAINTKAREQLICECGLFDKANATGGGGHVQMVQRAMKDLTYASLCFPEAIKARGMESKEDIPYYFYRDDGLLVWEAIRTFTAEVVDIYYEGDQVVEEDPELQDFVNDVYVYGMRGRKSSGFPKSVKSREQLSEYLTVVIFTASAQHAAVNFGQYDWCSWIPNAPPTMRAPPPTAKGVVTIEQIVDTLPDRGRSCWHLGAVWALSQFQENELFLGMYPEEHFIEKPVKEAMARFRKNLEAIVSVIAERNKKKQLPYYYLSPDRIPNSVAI
In short: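 Insect-cell human 5-LO preincubated 15 min at RT with compound (pH 7.4, 2 mM CaCl2, 0.1 mM ATP, 1% DMSO), then 3 uM arachidonic acid for 5 min at 37 °C; LTB4 quantified by EIA and/or LC/MS/MS. Alternatively, fluorescence of 5-HpETE via H2DCFDA, 100 uM ATP, 3 uM arachidonic acid, 5 min, RT; single 10 uM screen then 6- or 11-point IC50.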

[2] = tested on: inflammatory lesions in the lungs; experiment: Acute TB mouse model of infection, histopathological analysis of lung tissue; format: in vivo, BalbC mice; settings: TB-infected mice, Hematoxylin and Eosin staining, compared with even INH treatment (FIG. 1)
Description: The effect of compound 127 on TB-infected mice was compared to that of the reference compound Isoniazid (INH). 8-week old female BalbC mice were infected with 6×10^5 M. tuberculosis H37Rv via intranasal instillation. Mice were sacrificed at day 1 to control the number of CFU in the lungs. In the acute model of infection, mice were treated for 4 weeks, starting at day 1. Compounds were freshly dissolved in a 0.5% methylcellulose solution and administered by oral gavage 5 times/week. Bacterial load was assessed in lungs after homogenizing the organs in 1×PBS. Serial dilutions of organ homogenates were spread on Middlebrook 7H11 plates and CFU were determined after 3 weeks incubation at 37° C. under 5% CO2. Histopathological analysis of lung tissue was performed by Hematoxylin and Eosin staining.

Row | SMILES | melting point [°C] | EC50 [1] [nM] | inhibition at 10 µM (Human 5-lipoxygenase) [%] | IC50 (Human 5-lipoxygenase) [nM] | also measured
1 | NNC(=O)c1ccncc1 [INH, Isoniazid, reference compound] |  |  |  |  | Log10CFU (M. tuberculosis H37Rv; 25 mg/kg oral gavage 5 times/week): 5.0 Log10CFU
2 | CCc1nc2cc(Cl)ccn2c1C(=O)NCc1ccc(N2CCN(c3ccc(F)cc3)CC2)cc1 [compound 127, 7-Chloro-2-ethyl-N-(4-(4-(4-fluorophenyl)piperazin-1-yl)benzyl)imidazo[1,2-a]pyridine-3-carboxamide] | 212 to 213 | < 1000 | > 69 | > 20000 | Log10CFU (M. tuberculosis H37Rv; 50 mg/kg oral gavage 5 times/week): 6.47 Log10CFU; reduction of CFU compared to untreated mice (M. tuberculosis H37Rv; 50 mg/kg, after 4 weeks of treatment): ~1 log CFU; number and size of inflammatory lesions in the lungs [2]: significant reduction in the number and size of inflammatory lesions in the lungs
3 | CCc1nc2cc(Cl)ccn2c1C(=O)NCc1ccc2oc(-c3ccc(OC(F)(F)F)cc3)nc2c1 [compound 187, 7-Chloro-2-ethyl-N-((2-(4-(trifluoromethoxy)phenyl)benzo[d]oxazol-5-yl)methyl)imidazo[1,2-a]pyridine-3-carboxamide] |  | 1000 to 20000 | < 40 |  | 
4 | CCc1nc2ccc(Cl)cn2c1CNc1ccc(N2CCN(c3ccc(F)cc3)CC2)cc1 [compound 311, N-((6-Chloro-2-ethylimidazo[1,2-a]pyridin-3-yl)methyl)-4-(4-(4-fluorophenyl)piperazin-1-yl)aniline] | 191 to 192 | 1000 to 20000 | > 69 | < 1000 | 
5 | CCc1nc2cc([N+](=O)[O-])ccn2c1C(=O)NCc1ccc(N2CCC(Oc3ccc(OC(F)(F)F)cc3)CC2)cc1 [compound 312, 2-Ethyl-7-nitro-N-(4-(4-(4-(trifluoromethoxy)phenoxy)piperidin-1-yl)benzyl)imidazo[1,2-a]pyridine-3-carboxamide] |  | < 1000 | > 69 | < 1000 | 
6 | CCc1nc2ccc(Cl)cn2c1C(=O)N1CCC(OCc2ccc(OC(F)(F)F)cc2)CC1 [compound 313, (6-Chloro-2-ethylimidazo[1,2-a]pyridin-3-yl)(4-(4-(trifluoromethoxy)benzyloxy)piperidin-1-yl)methanone] |  | < 1000 | > 69 | 1000 to 20000 | 
7 | CCc1nc2ccc(Cl)cn2c1C(=O)N(C)Cc1ccc(N2CCN(c3ccc(F)cc3)CC2)cc1 [compound 314, 6-Chloro-2-ethyl-N-(4-(4-(4-fluorophenyl)piperazin-1-yl)benzyl)-N-methylimidazo[1,2-a]pyridine-3-carboxamide] | 148 to 149 | < 1000 | > 69 | 1000 to 20000 | 
8 | CCc1nc2ncccn2c1CNc1ccc(N2CCN(c3ccc(F)cc3)CC2)cc1 [compound 395, N-((2-Ethylimidazo[1,2-a]pyrimidin-3-yl)methyl)-4-(4-(4-fluorophenyl)piperazin-1-yl)aniline] | 210.7 |  |  | < 1000 | 
9 | CCc1nc2cccnn2c1CNc1ccc(N2CCN(c3ccc(F)cc3)CC2)cc1 [compound 396, N-((2-Ethylimidazo[1,2-b]pyridazin-3-yl)methyl)-4-(4-(4-fluorophenyl)piperazin-1-yl)aniline] | 192.7 |  |  | < 1000 | 
10 | CCc1nc2ccc(Cl)cn2c1COc1ccc(N2CCN(c3ccc(F)cc3)CC2)cc1 [compound 399, 6-chloro-2-ethyl-3-((4-(4-(4-fluorophenyl)piperazin-1-yl)phenoxy)methyl)imidazo[1,2-a]pyridine] | 161.3 |  |  | < 1000 | 
11 | CCc1nc2cc(Cl)ccn2c1COc1ccc(N2CCN(c3ccc(F)cc3)CC2)cc1 [compound 400, 7-chloro-2-ethyl-3-((4-(4-(4-fluorophenyl)piperazin-1-yl)phenoxy)methyl)imidazo[1,2-a]pyridine] | 167.5 |  |  | < 1000 | 
12 | Cc1nc2cccc(C)n2c1CNc1ccc(N2CCC(c3ccc(F)cc3)CC2)cc1 [compound 401, N-((2,5-dimethylimidazo[1,2-a]pyridin-3-yl)methyl)-4-(4-(4-fluorophenyl)piperidin-1-yl)aniline] | 228.8 |  |  | < 1000 | 
13 | Cc1nc2cccc(C)n2c1CNc1ccc(N2CCN(c3ccc(F)cc3)CC2)cc1 [compound 402, N-((2,5-dimethylimidazo[1,2-a]pyridin-3-yl)methyl)-4-(4-(4-fluorophenyl)piperazin-1-yl)aniline] | 196.4 |  |  | < 1000 | 
14 | CCc1nc2ccc(F)cn2c1C(=O)NC1CCN(c2ccc(Nc3ccccc3)cc2)C1 (centres unmarked) [compound 403, 2-Ethyl-6-fluoro-N-(1-(4-(phenylamino)phenyl)pyrrolidin-3-yl)imidazo[1,2-a]pyridine-3-carboxamide] | 224.7 |  |  | < 1000 | 

Reference: patent publication US9029389B2 (Institut Pasteur Korea, priority 2011, dated 2015)
